These results are taken from patent US8865653B2, “Method of treatment for immunogenic treatment resistant cancer” (Institut Gustave Roussy, priority 2010, dated 2014).

For data set [1], the system named is U2OS cells stably expressing CRT-GFP. The experiment in a line: CRT-GFP redistribution (granularity, nuclear shape) by automated microscopy; ICCB library screen. It is filed as cell-based, human. As to conditions: for CRT-GFP granularity / CRT exposure in library screen in the presence vs absence of CDDP: ICCB library, 4 h, with CDDP. How it is done:
The data is depicted as mean±s.e.m. of quadruplicates from a representative experiment. (C) Immunofluorescene was conducted on CRT-GFP expressing cells by means of staining with anti-CRT antibody and subsequent confocal image acquisition. (D) CRT has been cloned in frame n-terminal to a HaloTag® sequence followed by a KDEL ER retention signal. (E) The impermeable HaloTag® ligand forms covalent bonds exclusively with surface exposed HaloTag®-CRT fusion protein, whereas intracellular HaloTag®-CRT remains undetected.
Compounds from the ICCB known bioactive compounds library have been tested for their capacity to induce CRT-exposure. […] The cells were incubated for 4 h and were acquired by means of automated microscopy. The data is depicted as dot plots and representative images (B).
After washing with PBS 4 viewfields per well were acquired by means of a BD pathway 855 automated microscope.

Data set [2] relates to U2OS cells. It is filed as cell-based. As to the method:
The data is depicted as representative images (A) and (B) normalized Bax-GFP granularity values.
The data represents mean±s.e.m. of quadruplicates from a representative experiment. […] 16 h after treatment, cell death was monitored by simultaneous staining with 3,3 dihexyloxacarbocyanine iodide (DiOC6(3)) and propidium iodide (PI), and the percentage of dying (DiOC6(3)^low PI^−, open bars) and dead (DiOC6(3)^low PI^+, closed bars) cells was determined by cytofluorometry.
Cell death was quantified by cytofluorometric analysis using a FACS Vantage (Becton Dickinson, Mountain View, USA) as described previously (REF). Thus, cells were stained with 40 nM 3,3 dihexyloxacarbocyanine iodide (DiOC6(3); Molecular Probes, Eugene, Oreg., USA) for 30 min at 37° C. and concomitantly with 1 μg/ml propidium iodide (PI; Sigma Aldrich) for 30 min at 37° C. to determine the mitochondrial transmembrane potential. Data were statistically evaluated using CellQuest Pro software (Becton Dickinson, Mountain View, USA).

In data set [3] the test system is MCA205 cells. As to conditions: Martins I et al, Oncogene 2010; cited from earlier work.
Data set [4] has as its system MCA205 cells. The experiment in a line: In vivo anti-tumor vaccination with treated MCA205 cells (Example 3). As to conditions: MCA205, rechallenge with live cells.
Protocol: (F) MCA205 cells have been used for tumor vaccination in vivo. […] The mice have been rechallenged after 6 days with living cells and the tumor growth is depicted in the survival plot (n=10).
Tumor growth was evaluated for at least 50 days.
In data set [5] the test system is U2OS cells. The experiment in a line: Analysis of surface exposed CRT (HaloTag ligand, anti-CRT immune staining).
A further data set deals with CT26 and MCA cells. The experiment in a line: CRT exposure in single or cotreated cells (MitoC, cardiac glycosides). It is filed as cell-based, mouse. How it is done: (B) CRT exposure was analysed in the cells that were single or cotreated as indicated by means of CRT surface staining and FACS quantification.
For data set [6], the system named is MCA205 cells. The experiment in a line: In vivo anti-tumor vaccination with MitoC / Digoxin treated MCA205 cells. Also on record: species or system mice. As to conditions: 20 μM MitoC.
In the next data set the test system is MCA205 sarcoma. The experiment in a line: Anthracycline chemotherapy of established MCA205 sarcoma (intratumoral DX). It is filed as in vivo, mice. As to conditions: CH-223191 daily i.p. for 4 days from day of DX. As to the method:
0.8 million MCA205 or CT26 or TS/A tumor cells were inoculated subcutaneously near the thigh into C57Bl/6 (H-2^b) or BALB/c (H-2^d) mice. Anthracyclines-based chemotherapy was performed in MCA205 and CT26 models by intratumoral injecting DX (2 mM, […]) when tumors reached the size 25-40 mm^2. Radiotherapy was performed by local X-ray irradiation (10 Gy, RT250, Phillips) at the unshielded tumor area when TS/A tumor reached the size 40-60 mm^2.

Data set [7] concerns MCA205. The experiment in a line: Pro-apoptotic effect on MCA205, DiOC6(3) fluorescence. It is filed as cell-based, mouse. As to conditions: alone or in combination with anthracyclines (DX, MTX). How it is done:
(B) The impact of AHR pharmacological inhibitor CH-223191 on pro-apoptotic effect of DX or MTX against MCA205 was measured. A reduction in mitochondrial membrane potential indicated by decreased DiOC6(3) fluorescence was used to show cell apoptosis. The experiment was performed twice with identical results.

Another data set has as its target AHR (Homo sapiens, UniProt P35869). As to conditions: pure antagonist of AHR; cited from earlier work.
The subject of data set [8] is MCA205. The experiment in a line: Tumor vaccination with MTX-treated MCA205 and rechallenge. As to conditions: s.c. injection of MTX treated MCA205 cells, WT mice (not athymic nude mice). It is filed as in vivo.
Protocol: MCA205 cells were treated with 2 μM MTX for 18 hrs, washed thoroughly and injected into left flank subcutaneously at 0.3 million/mouse. PBS was used as control. Mice were rechallenged with 5×10^4 live MCA205 cells in the right flank 7 days later. Tumor growth was monitored every 2-3 days.
In data set [9] the test system is CT26 overexpressing LC3-GFP. The experiment in a line: Induction of autophagy in vivo, LC3-GFP redistribution. As to conditions: i.v., tumors withdrawn 48 hours post-therapy. On the set-up: species or system mice. As to the method: After 8 days of tumor implantation (CT26 mouse colon cancer genetically modified to overexpress LC3-GFP in BALB/c immunocompetent mice), oxaliplatin or mitoxanthrone was inoculated systemically (i.v.). Tumors were withdrawn at 48 hours post-therapy and immunofluorescence stainings were performed on frozen sections of tumor tissues to visualize nuclei (in Hoechst blue), and autophagosomes in green (LC3-GFP). […] The lower panel is a graph summarizing enumeration of autophagosomes positive cells in 10 independent sections per tumor and animal (each dot represents one tumor). Statistical analyses were performed with Anova test (Fisher's exact method) with significant results at p<0.05.

In data set [10] the test system is CT26 (ATG5 or ATG7 knock down, WT). The experiment in a line: Chemotherapy of established autophagy-deficient CT26 tumors ± apyrase inhibitor. It is filed as in vivo, mice. How it is done:
One million CT26 knock down with small interfering RNA specific for ATG5 or ATG7 or controls WT were treated with the anthracyclin mitoxanthrone (MTX) at 8 days post-implantation in one flank of a naïve animal (BALB/C mouse). […] Monitoring of tumor growth was recorded with a caliper (product of perpendicular diameters) and is depicted for 5 mice/group. Statistical analyses were performed with Anova test (Fisher's exact method) with significant results at p<0.05.

Data set [11] relates to U2OS cells. The experiment in a line: US Drug library screen: CRT-GFP, HMGB1-GFP, quinacrine. As to conditions: 1 μM, 4 h / 24 h / 16 h.
Data set [12] concerns CT26 (siATG5, siATG6, siATG7). The experiment in a line: Prophylactic immunization with autophagy-deficient dying CT26 cells ± apyrase inhibitor. It is filed as in vivo. As to conditions: anthracycline-treated cells injected s.c., immunocompetent mice. As to the method:
One million CT26 knock down with small interfering RNA specific for ATG5, ATG6 (Beclin 1 BCN1), or ATG7 or controls siCO were treated with the anthracyclin mitoxanthrone (MTX) for 18 hours, washed and inoculated in one flank of a naïve animal (BALB/C mouse). Positive controls are CT26 treated with MTX and negative controls are CT26 treated with PBS. Ten days later, mice were rechallenged with 3× the minimal tumorigenic dose of live CT26 cells on the opposite flank and monitoring of tumor growth was recorded with a caliper (product of perpendicular diameters). The % of tumor free animals are shown in the graph and the number of animals per group is indicated (n=20). Statistical analyses were performed with Anova test (Fisher's exact method) with significant results at p<0.05.
Idem as in FIG. 40 but the dying cells (siCO or siATG7) were admixed (or not) with apyrase inhibitors (AI) (apyrases are enzymes hydrolyzing ATP in the extracellular milieu) and/or suramine (SUR) or oxidized ATP (OXY), both inhibitors of purinergic receptors at the conventional dosing (previously reported). The % of tumor free animals are shown in the graph and the number of animals per group is indicated (n=20). Statistical analyses were performed with Anova test (Fisher's exact method) with significant results at p<0.05.

[13] abbreviates: MTX at 8 days post-implantation.

Sequence of AHR (P35869 11-848, species assumed): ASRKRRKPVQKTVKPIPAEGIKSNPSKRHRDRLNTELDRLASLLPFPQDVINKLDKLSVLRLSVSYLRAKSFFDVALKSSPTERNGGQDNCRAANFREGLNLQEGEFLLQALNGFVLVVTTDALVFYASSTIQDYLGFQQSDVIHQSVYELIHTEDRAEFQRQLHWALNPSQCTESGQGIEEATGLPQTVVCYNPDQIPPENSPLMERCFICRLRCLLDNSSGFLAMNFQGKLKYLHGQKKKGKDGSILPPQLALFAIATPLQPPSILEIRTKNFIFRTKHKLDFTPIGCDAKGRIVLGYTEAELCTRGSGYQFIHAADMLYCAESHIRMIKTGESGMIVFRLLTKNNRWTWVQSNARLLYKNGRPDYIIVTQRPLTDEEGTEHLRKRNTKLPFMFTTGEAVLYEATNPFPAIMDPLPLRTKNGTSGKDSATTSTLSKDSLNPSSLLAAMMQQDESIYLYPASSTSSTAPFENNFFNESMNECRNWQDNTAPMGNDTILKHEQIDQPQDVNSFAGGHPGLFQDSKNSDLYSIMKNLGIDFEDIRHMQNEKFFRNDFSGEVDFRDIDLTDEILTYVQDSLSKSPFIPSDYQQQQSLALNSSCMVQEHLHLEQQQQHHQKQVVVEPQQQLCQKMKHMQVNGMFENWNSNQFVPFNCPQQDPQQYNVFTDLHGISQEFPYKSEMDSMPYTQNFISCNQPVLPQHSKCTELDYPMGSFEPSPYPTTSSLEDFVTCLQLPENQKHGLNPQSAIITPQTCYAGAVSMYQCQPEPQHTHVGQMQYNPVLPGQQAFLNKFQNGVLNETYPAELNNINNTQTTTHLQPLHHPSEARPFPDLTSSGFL

Regarding `C/C=C(/C)C(=O)O[C@H]1C(C)=C2[C@H]([C@@H]1OC(=O)CCCCCCC)[C@@](C)(OC(C)=O)C[C@H](OC(=O)CCC)[C@@]1(O)[C@H]2OC(=O)[C@@]1(C)O` [THAPS, thapsigargin], the “CRT-GFP granularity / CRT exposure in library screen in the presence vs absence of CDDP” value in [1] is on record as “particularly efficient in inducing CRT-GFP granularity in the presence (but not in the absence) of CDDP”. For the same compound, the “CRT-GFP granularity / CRT exposure in library screen in the presence vs absence of CDDP” value in data set [1] (listed as thapsigargin) is “the sole agent (out of 450 compounds) to induce CRT exposure in the presence of cisplatin but not in the absence of cisplatin”. Further, in the data set with U2OS cells [2], the cytotoxic effects entry is reported as “exhibited no major cytotoxic effects” and the “effect on toxicity of CDDP” value was “did not increase the toxicity of CDDP”. In addition, in the data set with MCA205 cells [3], the “immunogenic cell death when combined with cisplatin” value is on record as “could induce immunogenic cell death when combined with cisplatin”. Besides, the “anticancer immune response, vaccine of dying cells generated with CDDP combined with THAPS” value in the data set on MCA205 cells [4] is recorded as “elicited an effective anticancer immune response in vivo”. Also, the “CRT-GFP granularity, CRT-HaloTag exposure, native CRT exposure, THAPS alone” value in the data set with U2OS cells [5] (in the absence of CDDP) was “comparably inefficient”. Besides, the “CRT-GFP granularity, CRT-HaloTag exposure, native CRT exposure, THAPS with CDDP” value in the data set on U2OS cells [5] (in the presence of CDDP) is listed as “highly efficient in the presence of CDDP”.

With `CO[C@@]12[C@H](COC(N)=O)C3=C(C(=O)C(C)=C(N)C3=O)N1C[C@@H]1N[C@@H]12` [MitoC, mitomycin C], the “CRT exposure, MitoC by its own” value in the data set on CT26 and MCA cells was “incapable of exposing CRT”. Further, the “vaccinating effect, MitoC alone” value in the data set with MCA205 cells [6] was “failed to confer any vaccinating effect”.

As to `Cc1ccccc1N=Nc1ccc(NC(=O)c2ccnn2C)c(C)c1` [CH-223191, 2-methyl-2H-pyrazole-3-carboxylic acid (2-methyl-4-o-tolylazo-phenyl)-amide], in the data set with MCA205 sarcoma, the “effect on efficacy of DX on established cancers in vivo” value is “markedly reduced the efficacy of DX”. For the same compound, the “cell-autonomous effects on the tumor cells” value in the data set with MCA205 [7] is listed as “no cell-autonomous effects on the tumor cells”. On AHR, the “concentration up to which no AHR agonist actions” value is greater than 100 µM.

As to `O=C1c2c(O)ccc(O)c2C(=O)c2c(NCCNCCO)ccc(NCCNCCO)c21` [MTX, mitoxantrone], the “protection against rechallenge with live MCA205 tumor cells” value in the data set on MCA205 [8] was “could protect WT mice”. In addition, the “CRT-GFP granularity (relocation to peripheral granular distribution)” value in [1] (1 μM MTX, 150 μM CDDP, 300 μM OXP) is reported as “only observed after treatment of the cells with MTX or OXP”. Besides, in data set [9], the “redistribution of LC3-GFP in autophagosomes in tumors” value is “Redistribution of LC3-GFP in autophagosomes can be visualized post-therapy”. Also, in [10] (setting [13]), the “growth of ATG5 and ATG7 deficient tumors under MTX” value is “not controlled by MTX therapy”; the “growth of CT26 WT tumors under MTX” value is on record as “significantly respond”. Moreover, the “rank in screen for exposing CRT and emitting HMGB1 and ATP” value with U2OS cells [11] was “most potent in exposing CRT, and emitting HMGB1 and ATP”.

With `CCN(CC)c1ncnc2c1ncn2C1OC(COP(=O)(O)OP(=O)(O)C(Br)(Br)P(=O)(O)O)C(O)C1O` [ARL67156, 6-N,N-Diethyl-D-beta-gamma-dibromomethylene adenosine triphosphate], the “immunogenicity of autophagy-deficient dying tumour cells with co-injected apyrase inhibitor” value in [12] is on record as “defect in immunogenicity can be restored”. In addition, the “response of autophagy-deficient tumours to anthracycline chemotherapy with intratumoural apyrase inhibitor” value in [10] (tumours established for 8 days) is “defect is again overcome”.
